Patent publication US7432369B2, “Pyridyl-substituted porphyrin compounds and methods of use thereof” (Inotek Pharmaceuticals Corporation, priority 2004, dated 2008)

Columns and labels:
[1] = system: A549 human epithelial cells; assay: Oxidant or free-radical damage, cell viability (mitochondrial respiration); assay type: cell-based; details: A549 cells treated with oxidants and free radicals
Experimental: (§1) The four right-hand most bar graphs represent cytotoxin plus […] of Compound 3.
(§2) A549 human epithelial cells and RAW murine macrophages were grown and cultured, then treated with oxidants and free radicals in the presence or absence of varying concentrations of Compound 3 according to the method of C. Szabo et al., Mol Med., October 2002;8(10):571-80. […] Protection is by 3-100 μM of Compound 3.

RAW murine macrophages = assay: as above; assay type: cell-based; details: RAW cells treated with oxidants and free radicals
Experimental: as §1, §2

[2] = system: rats subjected to myocardial infarction; assay: Myocardial infarction by occlusion and reperfusion of the left anterior descending coronary artery; assay type: in vivo, rat; details: 5 minutes prior to reperfusion
Experimental: Rats were subjected to myocardial infarction by occlusion and reperfusion of the left anterior descending coronary artery as previously described in C. Y. Xiao et al., J Pharmacol Exp Ther., August 2004;310(2):498-504. Compound 3 was administered at doses of 1, 3, or 6 mg/kg i.v., 5 minutes prior to reperfusion.

[3] = system: rats subjected to hemorrhagic shock; assay: Hemorrhagic shock and resuscitation; assay type: in vivo, rat; details: 6 mg/kg i.v., 5 minutes prior to resuscitation
Experimental: Rats were subjected to 2 hours of hemorrhage, followed by resuscitation as previously described in O. V. Evgenov et al., Crit Care Med., October 2003;31(10):2429-36. Compound 3 was administered at a dose of 6 mg/kg i.v., 5 minutes prior to resuscitation. […] To obtain the results shown in FIG. 7, rats were bled to reach mean BP of 40 mm Hg. This mean BP was maintained for 2 hours, followed by resuscitation with saline at a volume of 2× the shed blood volume. Rats were then observed for 3 hours, and the survival time was recorded. Compound 3 (6 mg/kg) was administered intravenously before the start of resuscitation. To obtain the results shown in FIG. 8, left intraventricular systolic pressure (LVSP), dP/dt, -dP/dt were monitored continuously for 20 minutes from 40 minutes after resuscitation. Compound 3 (6 mg/kg) was administered intravenously before the start of resuscitation. To obtain the results shown in FIG. 9, blood was taken 1 hour after resuscitation. Compound 3 (6 mg/kg) was administered intravenously before the start of resuscitation. To obtain the results shown in FIG. 10, blood was taken at 1 hour after resuscitation. Compound 3 (6 mg/kg) was administered intravenously before the start of resuscitation.

[4] = system: mice subjected to heart failure; assay: Heart failure induced by aortic banding; assay type: in vivo; details: 3 mg/kg/day orally
Experimental: Mice were subjected to heart failure induced by aortic banding as previously described in C. Y. Xiao et al., J Pharmacol Exp Ther., March 2005;312(3):891-8. Compound 3 was administered at a dose of 3 mg/kg/day orally.

[5] = system: rats subjected to heterotopic heart transplantation; assay: Heterotopic heart transplantation; assay type: in vivo, rat; details: 10 mg/kg/day orally
Experimental: Rats were subjected to heterotopic heart transplantation as described previously in H. Jiang et al., Transplantation, Jun. 15, 2002;73(11):1808-17. Compound 3 was administered at a dose of 10 mg/kg/day orally.

[6] = system: rats subjected to balloon-induced vascular injury; assay: Balloon-induced vascular injury of the carotid artery; assay type: in vivo, rat; details: 1 mg/kg bid
Excerpt: Rats were subjected to balloon-induced vascular injury of the carotid artery as previously described in C. Zhang et al., Am J Physiol Heart Circ Physiol., August 2004;287(2):H659-66.

[7] = system: mice subjected to streptozocin diabetes; assay: Multiple low dose streptozocin diabetes; assay type: in vivo; details: 3 or 10 mg/kg/day ip
Excerpt: Mice were subjected to multiple low dose streptozocin diabetes as previously described in J. G. Mabley et al., Br J Pharmacol., July 2001;133(6):909-19.

SMILES: O=C([O-])c1ccc(C[n+]2ccccc2/C2=C3\C=CC(=N3)/C(c3cccc[n+]3Cc3ccc(C(=O)[O-])cc3)=c3/cc/c4[n]3[Fe]([Cl])[n]3c2ccc3/C(c2cccc[n+]2Cc2ccc(C(=O)[O-])cc2)=C2/C=CC(=N2)\C=4c2cccc[n+]2Cc2ccc(C(=O)[O-])cc2)cc1 [Compound 3]
- concentration giving protection [1]: 3 to 100 µM
- protection against the suppression of cell viability [1]: dose-dependently protected
- concentration giving protection (RAW murine macrophages): 3 to 100 µM
- protection against the suppression of cell viability (RAW murine macrophages): dose-dependently protected
- plasma levels of creatine kinase ([2]; 6 mg/kg i.v.): reduced plasma levels of creatine kinase
- protective effect ([2]; 6 mg/kg i.v.): significant protective effect
- infarct size ([2]; 1, 3, or 6 mg/kg i.v.): effective for reducing infarct size
- blood pressure [3]: effective for stabilizing blood pressure
- plasma levels of ALT [3]: reduced
- plasma levels of creatine kinase [3]: reduced plasma levels of creatine kinase
- survival rate [3]: increasing survival rate
- degree of myocardial hypertrophy [4]: reduced the degree of myocardial hypertrophy
- degree of myocardial hypertrophy [5]: reduced the degree of myocardial hypertrophy
- degree of intimal hypertrophy [6]: reduced the degree of intimal hypertrophy
- development of endothelial dysfunction [6]: prevented the development of endothelial dysfunction
- loss of endothelium-dependent relaxations on the injured side ([6]; FIG. 13): completely prevented this loss of the endothelial function
- development of hyperglycemia [7]: prevented the development of hyperglycemia
- pancreatic insulin content [7]: normalized pancreatic insulin content
